Biological target: T1, human recombinant IL-17A (Homo sapiens, UniProt Q16552)
T1 construct: purchased R&D Systems 7955-IL/CF
T1 sequence (Q16552 24-155): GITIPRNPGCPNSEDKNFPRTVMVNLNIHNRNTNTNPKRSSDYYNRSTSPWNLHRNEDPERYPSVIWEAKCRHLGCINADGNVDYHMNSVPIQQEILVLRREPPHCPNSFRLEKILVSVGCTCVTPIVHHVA
Test: IL-17A AlphaLISA assay (block binding of IL-17A to its receptor IL-17RA)
Details: compounds pre-incubated with the IL-17A for 24 h at room temperature; read-out: AlphaLISA pIC50 (converted)
Description: The ability of the compounds to block binding of IL-17A to its receptor, IL-17RA, was analysed in a competition assay using AlphaLISA technology (Perkin Elmer). The assay is a bead based AlphaLISA where the IL-17RA is captured on the acceptor bead via an Fc tag and IL-17A is captured on the streptavidin donor bead via a biotinylated anti-IL17A antibody.
Assay buffer was prepared by adding 0.05% Tween-20 (v/v) and 0.1% BSA to Phosphate Buffered Saline (PBS). The assay was carried out in 384-well white low volume plates (Corning 4512). 10 µL of a 7.5 nM stock of human recombinant IL-17A (R&D Systems 7955-IL/CF) diluted in assay buffer was dispensed into the assay plate and compounds or DMSO vehicle control were added in a volume of 75 nL using a D300 dispenser (Hewlett Packard). The compounds were pre-incubated with the IL-17A for 24 h at room temperature (or for 30 min, where indicated by * in Table A below) prior to addition of 5 μL of a 5 nM stock of human recombinant IL-17RA/Fc chimera (R&D Systems 177-IR-100) diluted in assay buffer. The IL-17A was incubated with the receptor for a further 90 minutes at room temperature before addition of 5 μL of a mixture of anti-human Fc IgG acceptor beads (75 μg/mL, Perkin Elmer AL103C) and anti-IL-17A biotin conjugated antibody (5 nM, Enzo Life Sciences, ENZ-ABS278-0100) in assay buffer. After a further 30 min incubation at room temperature, 5 μL of streptavidin donor beads ([…], Perkin Elmer 6760002S) were added and the plate was incubated for 3 h in the dark.
The luminescence signal was measured using an Enspire plate reader (Perkin Elmer) with excitation at 680 nm and emission at 615 nm. Data were analysed using GraphPad Prism and fitted to a 4-parameter logistic equation. The IC50 values were calculated using the DMSO vehicle as the negative control and a high concentration (6 μM) of a reference IL-17A inhibitor as the positive control.
Activity of the Example compounds is reported as a PIC50 value in Table A.

Row | IC50 [µM] | SMILES
1 | 0.158 | Cn1nccc1C(=O)N[C@H](C(=O)Nc1ccc(-c2ccc(=O)n(C)n2)c(F)c1)C(c1ccccc1)c1ccccc1 [Example 48, (S)—N-(1-((3-fluoro-4-(1-methyl-6-oxo-1,6-dihydropyridazin-3-yl)phenyl)amino)-1-oxo-3,3-diphenylpropan-2-yl)-1-methyl-1H-pyrazole-5-carboxamide]
2 | 0.1 | Cn1nccc1C(=O)N[C@H](C(=O)Nc1ccc(-c2ccc(=O)[nH]c2)cc1)C(c1ccccc1)c1ccccc1 [Example 49, (S)-1-methyl-N-(1-oxo-1-((4-(6-oxo-1,6-dihydropyridin-3-yl)phenyl)amino)-3,3-diphenylpropan-2-yl)-1H-pyrazole-5-carboxamide]
3 | 0.0398 | Cc1cc(=O)[nH]cc1-c1ccc(NC(=O)[C@@H](NC(=O)c2ccnn2C)C(c2ccccc2)c2ccccc2)cc1 [Example 50, (S)-1-methyl-N-(1-((4-(4-methyl-6-oxo-1,6-dihydropyridin-3-yl)phenyl)amino)-1-oxo-3,3-diphenylpropan-2-yl)-1H-pyrazole-5-carboxamide]
4 | 0.0251 | Cn1nccc1C(=O)N[C@H](C(=O)Nc1ccc(-c2ccc(=O)n(C)c2)cc1)C(c1ccccc1)c1ccccc1 [Example 51, (S)-1-methyl-N-(1-((4-(1-methyl-6-oxo-1,6-dihydropyridin-3-yl)phenyl)amino)-1-oxo-3,3-diphenylpropan-2-yl)-1H-pyrazole-5-carboxamide]
5 | 0.0126 | Cn1nccc1C(=O)N[C@H](C(=O)Nc1ccc(-c2c[nH]c(=O)c3[nH]ccc23)cc1)C(c1ccccc1)c1ccccc1 [Example 52, (S)-1-methyl-N-(1-oxo-1-((4-(7-oxo-6,7-dihydro-1H-pyrrolo[2,3-c]pyridin-4-yl)phenyl)amino)-3,3-diphenylpropan-2-yl)-1H-pyrazole-5-carboxamide]
6 | 0.251 | COc1cc(NC(=O)[C@@H](NC(=O)c2ccnn2C)C(c2ccccc2)c2ccccc2)ccc1-c1ccncc1CO [Example 53, (S)—N-(1-((4-(3-(hydroxymethyl)pyridin-4-yl)-3-methoxyphenyl)amino)-1-oxo-3,3-diphenylpropan-2-yl)-1-methyl-1H-pyrazole-5-carboxamide]
7 | 0.316 | Cc1c(-c2ccc(NC(=O)[C@@H](NC(=O)c3ccnn3C)C(c3ccccc3)c3ccccc3)cc2C(F)(F)F)ccc(=O)n1C [Example 54, (S)—N-(1-((4-(1,2-dimethyl-6-oxo-1,6-dihydropyridin-3-yl)-3-(trifluoromethyl)phenyl)amino)-1-oxo-3,3-diphenylpropan-2-yl)-1-methyl-1H-pyrazole-5-carboxamide]
8 | 0.1 | Cc1cncc(C)c1-c1ccc(NC(=O)[C@@H](NC(=O)c2ccnn2C)C(c2ccccc2)c2ccccc2)cc1Cl [Example 55, (S)—N-(1-((3-chloro-4-(3,5-dimethylpyridin-4-yl)phenyl)amino)-1-oxo-3,3-diphenylpropan-2-yl)-1-methyl-1H-pyrazole-5-carboxamide]
9 | 0.1 | Cc1cc(-c2ccc(NC(=O)[C@@H](NC(=O)c3ccnn3C)C(c3ccccc3)c3ccccc3)cc2F)c(C)cn1 [Example 56, (S)—N-(1-((4-(2,5-dimethylpyridin-4-yl)-3-fluorophenyl)amino)-1-oxo-3,3-diphenylpropan-2-yl)-1-methyl-1H-pyrazole-5-carboxamide]
10 | 0.126 | Cc1nccc(-c2ccc(NC(=O)[C@@H](NC(=O)c3ccnn3C)C(c3ccccc3)c3ccccc3)cc2F)c1C [Example 57, (S)—N-(1-((4-(2,3-dimethylpyridin-4-yl)-3-fluorophenyl)amino)-1-oxo-3,3-diphenylpropan-2-yl)-1-methyl-1H-pyrazole-5-carboxamide]
11 | 0.316 | Cn1nccc1C(=O)N[C@H](C(=O)Nc1ccc(-c2ccc(=O)[nH]n2)c(F)c1)C(c1ccccc1)c1ccccc1 [Example 58, (S)—N-(1-((3-fluoro-4-(6-oxo-1,6-dihydropyridazin-3-yl)phenyl)amino)-1-oxo-3,3-diphenylpropan-2-yl)-1-methyl-1H-pyrazole-5-carboxamide]
12 | 0.1 | CCn1nccc1C(=O)N[C@H](C(=O)Nc1ccc(-c2c[nH]nc2C)c(F)c1)C(c1ccccc1)c1ccccc1 [Example 59, (S)-1-ethyl-N-(1-((3-fluoro-4-(3-methyl-1H-pyrazol-4-yl)phenyl)amino)-1-oxo-3,3-diphenylpropan-2-yl)-1H-pyrazole-5-carboxamide]
13 | 0.0398 | Cc1noc(C)c1-c1ccc(NC(=O)[C@@H](NC(=O)c2ccnn2C)C(c2ccccc2)c2ccccc2)cc1F [Example 60, (S)—N-(1-((4-(3,5-dimethylisoxazol-4-yl)-3-fluorophenyl)amino)-1-oxo-3,3-diphenylpropan-2-yl)-1-methyl-1H-pyrazole-5-carboxamide]
14 | 0.0398 | CCn1nccc1C(=O)N[C@H](C(=O)Nc1ccc(-c2c(C)noc2C)c(F)c1)C(c1ccccc1)c1ccccc1 [Example 61, (S)—N-(1-((4-(3,5-dimethylisoxazol-4-yl)-3-fluorophenyl)amino)-1-oxo-3,3-diphenylpropan-2-yl)-1-ethyl-1H-pyrazole-5-carboxamide]
15 | 0.794 | Cn1nccc1C(=O)N[C@H](C(=O)Nc1ccc(-c2cn[nH]c2)c(F)c1)C(c1ccccc1)c1ccccc1 [Example 62, (S)—N-(1-((3-fluoro-4-(1H-pyrazol-4-yl)phenyl)amino)-1-oxo-3,3-diphenylpropan-2-yl)-1-methyl-1H-pyrazole-5-carboxamide]
16 | 0.158 | Cn1nccc1C(=O)N[C@H](C(=O)Nc1ccc(-c2cnc(=O)n(C)c2)c(F)c1)C(c1ccccc1)c1ccccc1 [Example 63, (S)—N-(1-((3-fluoro-4-(1-methyl-2-oxo-1,2-dihydropyrimidin-5-yl)phenyl)amino)-1-oxo-3,3-diphenylpropan-2-yl)-1-methyl-1H-pyrazole-5-carboxamide]
17 | 0.398 | Cn1nccc1C(=O)N[C@H](C(=O)Nc1ccc(-c2cnc(=O)[nH]c2)c(F)c1)C(c1ccccc1)c1ccccc1 [Example 64, (S)—N-(1-((3-fluoro-4-(2-oxo-1,2-dihydropyrimidin-5-yl)phenyl)amino)-1-oxo-3,3-diphenylpropan-2-yl)-1-methyl-1H-pyrazole-5-carboxamide]
18 | 0.0501 | Cc1n[nH]cc1-c1ccc(NC(=O)[C@@H](NC(=O)c2ccnn2C)C(c2ccccc2)c2ccccc2)cc1F [Example 65, (S)—N-(1-((3-fluoro-4-(3-methyl-1H-pyrazol-4-yl)phenyl)amino)-1-oxo-3,3-diphenylpropan-2-yl)-1-methyl-1H-pyrazole-5-carboxamide]
19 | 0.0251 | Cn1nccc1C(=O)N[C@H](C(=O)Nc1ccc(-c2c[nH]c(=O)c3cccnc23)c(F)c1)C(c1ccccc1)c1ccccc1 [Example 66, (S)—N-(1-((3-fluoro-4-(5-oxo-5,6-dihydro-1,6-naphthyridin-8-yl)phenyl)amino)-1-oxo-3,3-diphenylpropan-2-yl)-1-methyl-1H-pyrazole-5-carboxamide]
20 | 0.398 | CCn1nccc1C(=O)N[C@H](C(=O)Nc1ccc(-c2cn[nH]c(=O)c2)c(F)c1)C(c1ccccc1)c1ccccc1 [Example 67, (S)-1-ethyl-N-(1-((3-fluoro-4-(6-oxo-1,6-dihydropyridazin-4-yl)phenyl)amino)-1-oxo-3,3-diphenylpropan-2-yl)-1H-pyrazole-5-carboxamide]
21 | 0.00794 | Cn1nccc1C(=O)N[C@H](C(=O)Nc1ccc(-c2c[nH]c(=O)c3[nH]ccc23)c(F)c1)C(c1ccccc1)c1ccccc1 [Example 68, (S)—N-(1-((3-fluoro-4-(7-oxo-6,7-dihydro-1H-pyrrolo[2,3-c]pyridin-4-yl)phenyl)amino)-1-oxo-3,3-diphenylpropan-2-yl)-1-methyl-1H-pyrazole-5-carboxamide]
22 | 0.0794 | Cn1nccc1C(=O)N[C@H](C(=O)Nc1ccc(-c2c[nH]c(=O)c3[nH]cnc23)c(F)c1)C(c1ccccc1)c1ccccc1 [Example 69, (S)—N-(1-((3-fluoro-4-(4-oxo-4,5-dihydro-3H-imidazo[4,5-c]pyridin-7-yl)phenyl)amino)-1-oxo-3,3-diphenylpropan-2-yl)-1-methyl-1H-pyrazole-5-carboxamide]
23 | 0.316 | Cn1nccc1C(=O)N[C@H](C(=O)Nc1ccc(-c2cn[nH]c(=O)c2)c(F)c1)C(c1ccccc1)c1ccccc1 [Example 70, (S)—N-(1-((3-fluoro-4-(6-oxo-1,6-dihydropyridazin-4-yl)phenyl)amino)-1-oxo-3,3-diphenylpropan-2-yl)-1-methyl-1H-pyrazole-5-carboxamide]
